# Data as given in ChEMBL document CHEMBL1201862, “PubChem BioAssay data set” (2004).
# The source made the active and inactive calls.
# Tests used:
# Leucine aminopeptidase = target: T1, Leucine aminopeptidase (Plasmodium falciparum 3D7, UniProt Q8IL11); assay: P. falciparum M17LAP inhibitors, primary screen, biochemical, fluorogenic H-Leu-NHMec substrate, 1536-well (AID 1619); type: functional
# T1 sequence (Q8IL11 whole entry): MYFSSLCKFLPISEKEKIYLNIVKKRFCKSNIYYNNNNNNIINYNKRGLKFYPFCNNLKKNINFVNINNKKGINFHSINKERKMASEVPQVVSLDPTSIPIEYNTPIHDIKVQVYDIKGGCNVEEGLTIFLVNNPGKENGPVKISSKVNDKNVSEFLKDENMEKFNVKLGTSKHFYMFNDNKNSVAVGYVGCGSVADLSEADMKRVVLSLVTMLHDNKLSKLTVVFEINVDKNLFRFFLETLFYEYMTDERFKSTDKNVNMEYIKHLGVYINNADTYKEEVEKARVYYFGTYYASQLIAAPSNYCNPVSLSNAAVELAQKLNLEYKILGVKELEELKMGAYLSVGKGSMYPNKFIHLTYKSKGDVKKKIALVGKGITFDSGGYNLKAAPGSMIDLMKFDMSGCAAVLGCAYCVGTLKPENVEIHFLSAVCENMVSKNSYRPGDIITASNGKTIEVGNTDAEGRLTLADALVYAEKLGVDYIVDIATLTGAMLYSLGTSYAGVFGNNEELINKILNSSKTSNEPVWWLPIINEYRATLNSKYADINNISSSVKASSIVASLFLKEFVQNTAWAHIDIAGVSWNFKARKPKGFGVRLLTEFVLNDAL
# Estrogen receptor = target: T2, Estrogen receptor (Homo sapiens, UniProt P03372);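 further: potency for inhibiting coactivator peptide recruitment to the receptor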
# T2 sequence (P03372 whole entry): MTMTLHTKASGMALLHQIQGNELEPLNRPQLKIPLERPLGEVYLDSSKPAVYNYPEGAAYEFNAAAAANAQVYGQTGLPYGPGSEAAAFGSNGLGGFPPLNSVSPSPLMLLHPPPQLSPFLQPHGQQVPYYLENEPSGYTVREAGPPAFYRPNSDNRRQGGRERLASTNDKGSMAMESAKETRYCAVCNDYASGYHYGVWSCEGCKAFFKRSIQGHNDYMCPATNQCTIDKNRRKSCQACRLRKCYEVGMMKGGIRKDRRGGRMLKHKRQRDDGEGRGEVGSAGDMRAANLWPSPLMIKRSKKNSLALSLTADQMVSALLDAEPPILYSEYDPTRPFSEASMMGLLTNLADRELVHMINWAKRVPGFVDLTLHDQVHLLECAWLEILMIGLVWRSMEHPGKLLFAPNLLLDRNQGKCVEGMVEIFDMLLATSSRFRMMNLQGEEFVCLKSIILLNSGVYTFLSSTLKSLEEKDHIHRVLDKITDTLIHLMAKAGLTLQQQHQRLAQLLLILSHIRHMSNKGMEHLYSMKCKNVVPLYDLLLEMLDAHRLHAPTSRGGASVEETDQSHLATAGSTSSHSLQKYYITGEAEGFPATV
# Aminopeptidase N = target: T3, Aminopeptidase N (Plasmodium falciparum FcB1/Columbia, UniProt O96935); assay: P. falciparum M1AAP inhibitors, biochemical, fluorogenic H-Leu-NHMec substrate, 1536-well (AID 1445); design: species or system Plasmodium falciparum 3D7, 3D7
# T3 sequence (O96935 whole entry): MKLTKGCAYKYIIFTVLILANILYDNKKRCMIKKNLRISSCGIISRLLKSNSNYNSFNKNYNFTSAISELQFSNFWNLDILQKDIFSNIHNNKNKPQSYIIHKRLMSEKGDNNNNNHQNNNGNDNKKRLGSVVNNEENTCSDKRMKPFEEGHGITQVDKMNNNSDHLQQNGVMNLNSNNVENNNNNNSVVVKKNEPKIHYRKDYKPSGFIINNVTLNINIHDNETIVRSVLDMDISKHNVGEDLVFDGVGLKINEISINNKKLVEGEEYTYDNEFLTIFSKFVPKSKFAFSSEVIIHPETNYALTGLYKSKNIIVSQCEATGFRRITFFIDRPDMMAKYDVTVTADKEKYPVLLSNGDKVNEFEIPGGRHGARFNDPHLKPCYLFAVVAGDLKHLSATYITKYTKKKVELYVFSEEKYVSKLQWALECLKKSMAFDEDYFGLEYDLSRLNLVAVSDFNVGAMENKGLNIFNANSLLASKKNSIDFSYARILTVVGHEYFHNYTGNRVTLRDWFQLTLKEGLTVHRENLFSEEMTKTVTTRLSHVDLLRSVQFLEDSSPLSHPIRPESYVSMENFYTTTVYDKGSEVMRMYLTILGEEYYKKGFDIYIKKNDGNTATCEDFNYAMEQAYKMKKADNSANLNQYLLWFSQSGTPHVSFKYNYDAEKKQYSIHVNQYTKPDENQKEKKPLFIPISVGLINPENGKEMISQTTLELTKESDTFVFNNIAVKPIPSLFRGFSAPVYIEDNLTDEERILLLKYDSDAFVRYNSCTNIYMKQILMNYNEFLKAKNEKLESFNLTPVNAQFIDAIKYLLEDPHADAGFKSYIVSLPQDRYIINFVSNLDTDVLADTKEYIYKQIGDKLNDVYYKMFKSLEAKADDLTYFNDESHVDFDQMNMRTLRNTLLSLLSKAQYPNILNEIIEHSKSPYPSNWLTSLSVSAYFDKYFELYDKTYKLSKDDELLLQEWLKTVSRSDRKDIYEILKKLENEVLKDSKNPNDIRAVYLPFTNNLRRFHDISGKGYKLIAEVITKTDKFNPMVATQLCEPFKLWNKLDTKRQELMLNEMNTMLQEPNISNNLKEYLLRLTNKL
# [1] = target: T4, Heat shock factor protein 1 (Mus musculus, UniProt P38532); assay: HSF1 potentiators in luciferase reporter cells, confirmation, cell-based, NIH3T3, luminescence, dose retest (AID 435004); type: functional;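 further: stress induced by proteasome inhibitor MG132 added 30 min after compound; luciferase reporter driven by HSF1 response element in NIH3T3 cells; actives raise luminescence as potentiators of the MG132 stress response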
# T4 sequence (P38532 whole entry): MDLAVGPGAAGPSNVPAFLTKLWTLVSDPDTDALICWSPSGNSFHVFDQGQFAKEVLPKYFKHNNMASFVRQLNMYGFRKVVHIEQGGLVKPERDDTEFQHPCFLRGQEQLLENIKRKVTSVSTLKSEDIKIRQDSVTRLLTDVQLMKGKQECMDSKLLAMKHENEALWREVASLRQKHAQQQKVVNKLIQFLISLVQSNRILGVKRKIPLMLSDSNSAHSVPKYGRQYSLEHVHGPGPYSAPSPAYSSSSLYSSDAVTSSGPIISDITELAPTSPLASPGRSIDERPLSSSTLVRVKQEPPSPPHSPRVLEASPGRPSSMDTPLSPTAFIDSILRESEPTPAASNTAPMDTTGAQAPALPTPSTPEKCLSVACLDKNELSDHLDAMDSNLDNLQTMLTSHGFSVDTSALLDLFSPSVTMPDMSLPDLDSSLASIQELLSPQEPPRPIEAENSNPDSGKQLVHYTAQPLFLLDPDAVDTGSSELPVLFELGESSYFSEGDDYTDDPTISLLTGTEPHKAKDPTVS
# Vero = Vero cell cytotoxicity, cytotoxicity control for flavivirus capping enzyme inhibitors (AID 588742); type: functional; conditions: Chlorocebus sabaeus
# Genome polyprotein = Genome polyprotein (dengue virus type 2, UniProt P29990); assay: Dengue-2 NS5 methyltransferase inhibitors, primary screen, biochemical, confirmation dose response (AID 588689); type: functional
# [2] = A Cell Based Secondary Assay To Explore Cytotoxicity of Compounds that Sensitize Mycobacterium Tuberculosis to Beta-Lactam Antibiotics.; type: functional
# [3] = growth suppression of PTEN-null colon cells, dose response, cell-based, HCT116 PTEN knockout (AID 1047); type: functional;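 further: HCT116 colon tumor cells with PTEN knocked out; cells exposed to compound for 60 hours before readout; potency for loss of cell viability measured by luminescence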
# [4] = growth suppression of beta-catenin-knockout colon cells, dose response, cell-based, HCT116, human colon tumor (AID 1045); type: functional;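 further: HCT116 colon tumor cells with beta catenin knocked out; cells exposed to compound for 60 hours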
# [5] = target: Luciferin 4-monooxygenase (Photinus pyralis, UniProt P08659); assay: Counter Screen for Luciferase-based Assay Positives. [Related pubchem assays: 620, 618, 411 ]
# cells [6] = type: functional, cell-based
# [7] = inhibitors of intracellular T. cruzi replication, confirmation, NIH3T3 host cells, beta-gal luminescence (AID 2044); type: functional, cell-based;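 further: intracellular parasites grown in NIH/3T3 mouse fibroblasts as host cells; luminescent beta-galactosidase reporter signal from transgenic T. cruzi replicating inside host cells; inhibitors lower the luminescence signal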
# cells [8] = type: functional, cell-based; remark: listed apart in the source
# HT-1080 = assay: cytotoxicity in HT1080 fibrosarcoma cells, cell-based, fluorescence readout (AID 620); type: functional; conditions: Homo sapiens
# [9] = cytotoxicity toward NIH3T3 fibroblasts, dose response, counter-screen, cell-based, ATP luminescence, mouse fibroblasts (AID 2010); type: functional;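 further: cells exposed to compound for about 90 hours before reading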
# Nonstructural protein 1 = Nonstructural protein 1 (Influenza A virus, UniProt Q194T2); type: functional, Influenza A virus (A/California/07/2009(H1N1))
# [10] = Shn3 3'UTR reporter inhibitors, dose response, cell-based, Clone20 osteoblasts, firefly luciferase, cherry-picked (AID 624132); type: functional;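 further: firefly luciferase luminescence from reporter carrying the Shn3 3'UTR in osteoblasts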
# [11] = HepG2 cell cytotoxicity, dose response, cytotoxicity control for Shn3 inhibitor project, CellTiter-Glo, cherry-picked (AID 624134); type: functional, cell-based
# [12] = control 3'UTR Renilla luciferase suppression, dose response, counter-screen for Shn3 inhibitor project, cell-based, Clone20-Shn3RL, cherry-picked (AID 624133); type: functional
# [13] = target: T5, Acyl-homoserine lactone acylase PvdQ (Pseudomonas aeruginosa (strain LESB58), UniProt Q9I194); assay: P. aeruginosa PvdQ acylase inhibitors, dose response, biochemical, fluorescence, plate reader and imaging, cherry-picks (AID 493231)
# T5 sequence (Q9I194 whole entry): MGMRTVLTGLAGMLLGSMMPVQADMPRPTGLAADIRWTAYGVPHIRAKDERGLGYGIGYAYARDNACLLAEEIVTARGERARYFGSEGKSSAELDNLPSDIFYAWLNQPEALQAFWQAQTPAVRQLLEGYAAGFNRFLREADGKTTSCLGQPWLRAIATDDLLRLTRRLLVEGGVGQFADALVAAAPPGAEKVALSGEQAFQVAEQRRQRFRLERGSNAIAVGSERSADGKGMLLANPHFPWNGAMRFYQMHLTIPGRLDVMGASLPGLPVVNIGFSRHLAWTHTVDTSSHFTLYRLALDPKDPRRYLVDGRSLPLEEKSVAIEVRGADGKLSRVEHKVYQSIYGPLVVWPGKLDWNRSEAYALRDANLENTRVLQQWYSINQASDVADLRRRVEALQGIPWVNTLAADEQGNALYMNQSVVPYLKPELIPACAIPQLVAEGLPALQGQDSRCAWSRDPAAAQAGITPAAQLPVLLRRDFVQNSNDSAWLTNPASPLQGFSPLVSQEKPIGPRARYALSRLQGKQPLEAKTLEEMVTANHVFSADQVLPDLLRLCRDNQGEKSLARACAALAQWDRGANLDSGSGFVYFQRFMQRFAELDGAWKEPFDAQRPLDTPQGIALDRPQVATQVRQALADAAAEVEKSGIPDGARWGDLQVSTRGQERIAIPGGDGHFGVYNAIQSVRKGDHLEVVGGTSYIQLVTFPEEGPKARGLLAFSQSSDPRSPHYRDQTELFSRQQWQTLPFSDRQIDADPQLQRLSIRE
# Cytochrome P450 3A4 = Cytochrome P450 3A4 (Homo sapiens, UniProt P08684); conditions: Potency;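 further: confirmatory qHTS run detecting inhibitors and substrates of CYP3A4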
# CAAX prenyl protease 2 = target: T6, CAAX prenyl protease 2 (Saccharomyces cerevisiae S288c, UniProt Q03530); type: biochemical
# T6 sequence (Q03530 whole entry): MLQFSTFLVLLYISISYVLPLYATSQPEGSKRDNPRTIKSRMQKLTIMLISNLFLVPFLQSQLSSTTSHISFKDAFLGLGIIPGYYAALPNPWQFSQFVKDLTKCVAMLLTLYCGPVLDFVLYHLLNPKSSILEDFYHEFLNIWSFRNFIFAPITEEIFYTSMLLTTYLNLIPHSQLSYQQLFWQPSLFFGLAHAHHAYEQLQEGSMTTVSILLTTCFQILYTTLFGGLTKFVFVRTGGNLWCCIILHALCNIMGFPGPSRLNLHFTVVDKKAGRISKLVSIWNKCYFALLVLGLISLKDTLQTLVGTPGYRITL
# [14] = target: G-protein coupled receptor 55 (Homo sapiens, UniProt Q9Y2T6); assay: GPR55 agonists via beta-arrestin recruitment, primary screen, imaging, U2OS cells, beta-arrestin-GFP redistribution (AID 1961); type: functional
# G-protein coupled receptor 55, sequence (Q9Y2T6 whole entry): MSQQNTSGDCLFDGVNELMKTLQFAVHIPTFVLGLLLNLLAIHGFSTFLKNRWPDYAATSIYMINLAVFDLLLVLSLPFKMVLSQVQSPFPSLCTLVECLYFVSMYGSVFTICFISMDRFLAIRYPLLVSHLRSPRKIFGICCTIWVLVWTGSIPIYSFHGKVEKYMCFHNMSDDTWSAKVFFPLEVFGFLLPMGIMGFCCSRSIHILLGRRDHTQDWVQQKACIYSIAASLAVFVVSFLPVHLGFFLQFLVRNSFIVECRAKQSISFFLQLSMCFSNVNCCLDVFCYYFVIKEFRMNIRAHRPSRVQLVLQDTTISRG
# Cytochrome P450 3A4, sequence (P08684 whole entry): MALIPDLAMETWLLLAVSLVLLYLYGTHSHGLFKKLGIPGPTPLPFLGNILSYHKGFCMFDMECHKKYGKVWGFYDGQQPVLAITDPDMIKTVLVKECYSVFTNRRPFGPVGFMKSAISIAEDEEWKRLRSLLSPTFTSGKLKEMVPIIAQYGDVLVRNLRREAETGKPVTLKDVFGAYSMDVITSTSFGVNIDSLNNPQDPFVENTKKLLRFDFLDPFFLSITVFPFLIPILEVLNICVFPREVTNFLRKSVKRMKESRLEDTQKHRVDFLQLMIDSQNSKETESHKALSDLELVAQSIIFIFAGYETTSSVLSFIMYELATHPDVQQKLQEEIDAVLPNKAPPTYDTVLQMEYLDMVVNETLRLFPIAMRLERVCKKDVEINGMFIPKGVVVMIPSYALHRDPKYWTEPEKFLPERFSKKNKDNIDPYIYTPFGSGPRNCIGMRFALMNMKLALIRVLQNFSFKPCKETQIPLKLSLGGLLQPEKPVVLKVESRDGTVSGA
# Luciferin 4-monooxygenase, sequence (P08659 whole entry): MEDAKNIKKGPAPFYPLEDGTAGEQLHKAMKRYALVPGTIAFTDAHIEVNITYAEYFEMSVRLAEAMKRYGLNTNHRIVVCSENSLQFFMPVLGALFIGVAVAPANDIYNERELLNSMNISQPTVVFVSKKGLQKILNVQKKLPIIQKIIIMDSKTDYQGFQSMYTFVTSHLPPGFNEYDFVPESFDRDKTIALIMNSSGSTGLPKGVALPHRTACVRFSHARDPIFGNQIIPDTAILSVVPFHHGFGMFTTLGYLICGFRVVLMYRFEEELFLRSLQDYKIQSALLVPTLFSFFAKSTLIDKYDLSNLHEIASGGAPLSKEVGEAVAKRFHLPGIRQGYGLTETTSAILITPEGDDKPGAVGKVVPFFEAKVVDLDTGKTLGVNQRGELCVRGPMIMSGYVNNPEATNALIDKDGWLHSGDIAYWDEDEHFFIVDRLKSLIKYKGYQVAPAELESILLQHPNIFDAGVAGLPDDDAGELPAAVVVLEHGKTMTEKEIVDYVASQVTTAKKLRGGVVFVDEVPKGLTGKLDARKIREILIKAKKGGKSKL
# Nonstructural protein 1, sequence (Q194T2 whole entry): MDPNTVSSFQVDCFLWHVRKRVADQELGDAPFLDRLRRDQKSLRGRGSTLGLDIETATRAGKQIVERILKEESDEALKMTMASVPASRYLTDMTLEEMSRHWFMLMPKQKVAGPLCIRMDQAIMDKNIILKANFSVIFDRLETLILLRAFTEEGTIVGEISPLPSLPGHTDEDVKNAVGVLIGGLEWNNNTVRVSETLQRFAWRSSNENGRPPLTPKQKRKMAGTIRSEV
# Genome polyprotein, sequence (P29990 2492-3391 limits assumed): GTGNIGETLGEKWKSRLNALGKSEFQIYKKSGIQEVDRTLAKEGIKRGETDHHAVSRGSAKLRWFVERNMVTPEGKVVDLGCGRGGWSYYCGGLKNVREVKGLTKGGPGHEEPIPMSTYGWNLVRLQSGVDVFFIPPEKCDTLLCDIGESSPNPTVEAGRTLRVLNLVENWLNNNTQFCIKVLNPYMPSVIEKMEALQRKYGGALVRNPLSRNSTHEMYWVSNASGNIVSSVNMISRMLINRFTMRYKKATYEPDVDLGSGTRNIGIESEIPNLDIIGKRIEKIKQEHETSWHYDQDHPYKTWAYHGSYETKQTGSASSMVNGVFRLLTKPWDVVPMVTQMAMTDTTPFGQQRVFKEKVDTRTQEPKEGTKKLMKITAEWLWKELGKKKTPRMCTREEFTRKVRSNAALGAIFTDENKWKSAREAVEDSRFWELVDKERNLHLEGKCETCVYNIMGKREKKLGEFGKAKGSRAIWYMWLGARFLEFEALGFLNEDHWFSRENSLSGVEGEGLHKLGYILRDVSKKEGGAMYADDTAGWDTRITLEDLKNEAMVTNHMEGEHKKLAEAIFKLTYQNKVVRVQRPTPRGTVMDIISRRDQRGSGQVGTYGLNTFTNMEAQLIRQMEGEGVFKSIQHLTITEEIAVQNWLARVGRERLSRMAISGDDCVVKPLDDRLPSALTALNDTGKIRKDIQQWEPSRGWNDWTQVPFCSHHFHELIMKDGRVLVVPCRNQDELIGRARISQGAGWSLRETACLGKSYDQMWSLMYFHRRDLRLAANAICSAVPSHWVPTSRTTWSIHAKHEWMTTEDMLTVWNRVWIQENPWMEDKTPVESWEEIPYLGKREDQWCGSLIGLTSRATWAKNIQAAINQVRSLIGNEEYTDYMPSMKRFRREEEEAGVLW
smiles,measurement,setting,value
Cc1ncc(CC(=O)n2cc(C(=O)c3cc(F)ccc3O)cn2)s1,IC50,Leucine aminopeptidase,71.1 µM (active)
COc1cccc(OCc2nnc(SCC(=O)NCc3ccco3)n2CCc2ccccc2)c1,IC50,Estrogen receptor,> 50 µM (not active)
CCOc1cc([N+](=O)[O-])cc(/C=C2/NC(=O)N(Cc3ccccc3F)C2=O)c1O,IC50,Aminopeptidase N,55.6 µM (active)
same,EC50,[1],> 260 µM (inactive)
same,CC50,Vero,> 40 µM (active)
same,IC50,Genome polyprotein,58.8 µM (active)
COc1ccc(-c2c(C(F)(F)F)oc3cc(OCC(=O)Nc4ccccc4C(F)(F)F)ccc3c2=O)cc1OC,CC50,[2],10.9 µM (active)
same,EC50,[3],3.45 µM (active)
same,EC50,[4],3.72 µM (active)
COc1cccc(/C=N/NC(=O)NC23CC4CC(CC(C4)C2)C3)c1O,CC50,[2],23.3 µM (active)
C=CCNc1nc(-c2ccccn2)nnc1-c1ccccc1,EC50,[5],< 0.2 µM (active)
same,EC50,cells [6],7.13 µM (active)
same,EC50,[7],2.27 µM (active)
same,EC50,cells [8],> 350 µM (not active)
same,EC50,HT-1080,> 50 µM (not active)
same,EC50,[9],5.1 µM (active)
same,IC50,Nonstructural protein 1,1.25 µM (active)
same,AC50,[10],3.17 µM (active)
same,AC50,[11],6.36 µM (active)
same,AC50,[12],3.97 µM (active)
COCCCn1c(=N)c(C(=O)NCC2CCCO2)cc2c(=O)n3cccc(C)c3nc21 (configuration not stated),IC50,Aminopeptidase N,78.4 µM (active)
CCOC(=O)c1ccc(-c2ccc(CO)o2)cc1,AC50,[13],11.6 µM (active)
COc1ccc(NC(=O)CC(Cc2ccccc2)C(=O)O)cc1 (configuration not stated),IC50,Leucine aminopeptidase,18.7 µM (active)
CC(C)NC(=O)[C@H]1C[C@@H]1[C@H](NC(=O)OCc1ccccc1)c1ccccc1,AC50,Cytochrome P450 3A4,7.94 µM (inconclusive)
Cc1nccc(-c2cccc(N/N=C(\C#N)C(=O)c3ccccc3)c2)n1,IC50,Aminopeptidase N,16 µM (active)
COc1cccc(-c2c(C(=O)N/N=C/c3sccc3C)nnn2-c2nonc2N)c1,AC50,CAAX prenyl protease 2,7.8 µM (active)
"COc1cc(O)c(C)c(O)c1 [2,6-DIHYDROXY-4-METHOXYTOLUENE]",AC50,Cytochrome P450 3A4,39.8 µM (inconclusive)
C#CCCCCCCCCCCCc1ccco1,AC50,Cytochrome P450 3A4,39.8 µM (inconclusive)
C[C@@H]1CC=C[C@H]2[C@H]1C(=O)N(Cc1ccccc1)[C@H]2c1ccc(/C=C/c2ccccc2)cc1F,CC50,[2],> 40 µM (active)
CC(=C/c1ccccc1)/C=N/NC(=O)c1nnn(-c2nonc2N)c1CN1CCC(C)CC1,EC50,[14],0.601 µM (active)
CCC/C(=N/Nc1ccc(Cl)cc1)c1cnnc(-c2ccccc2)n1,IC50,Estrogen receptor,3.85 µM (active)
Cc1ccc2scc(CN3CCCC3)c2c1,AC50,[13],5.66 µM (active)
